Legend:
TACR2 = molecular target: T1, TACR2 (Homo sapiens, UniProt P21452); test: NanoBRET screen HiBiT-TACR2 in HEK293; format: binding; conditions: TACR2
T1 construct: purchased Promega (in-house HiBiT-GPCR construct library, NanoBRET)
T1 sequence (P21452 1-398): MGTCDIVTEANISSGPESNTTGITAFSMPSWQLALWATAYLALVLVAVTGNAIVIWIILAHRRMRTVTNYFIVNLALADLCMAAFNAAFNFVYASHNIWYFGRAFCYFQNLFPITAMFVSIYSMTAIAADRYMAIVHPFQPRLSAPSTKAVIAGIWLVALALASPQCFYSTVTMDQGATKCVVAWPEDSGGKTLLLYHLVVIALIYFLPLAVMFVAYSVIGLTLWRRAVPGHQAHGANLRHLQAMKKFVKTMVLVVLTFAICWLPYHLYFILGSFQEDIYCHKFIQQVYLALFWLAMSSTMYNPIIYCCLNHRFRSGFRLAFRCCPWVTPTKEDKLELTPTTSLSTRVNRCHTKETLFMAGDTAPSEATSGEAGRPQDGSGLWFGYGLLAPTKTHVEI
Experimental: (§1) Each tracer candidate was screened across the entire library of HiBiT-GPCR constructs using NanoBRET as the detection modality. As depicted in Figure 4A, the specificity of interactions was evaluated through decrease in BRET due to competitive displacement of a bound tracer by excess parental compound. Each tracer was analyzed for binding to each HiBiT-GPCR fusion in the absence and in the presence of competing parental compound. Briefly, HEK293 cells were transfected with HiBiT-GPCR constructs diluted into promoterless DNA to reduce expression and maximize translocation to the cell surface. Each tracer candidate was then screened at concentrations of 1 μM and 0.1 μM across cells expressing these fusions. Cells were treated for 1.5 h with tracer either alone or in the presence of 20 μM competing parental compound (i.e., control). BRET was measured upon addition of purified LgBiT and subsequent complementation with HiBiT genetically fused to a GPCR. The specificity of interactions was assessed through a decrease in BRET signal due to competitive displacement of the bound tracer. To further gauge the robustness of these interactions, the fold response over the control (i.e., BRETtracer/BRETcontrol) was calculated. We chose a 1.5-fold response, which translates to ≥7-fold signal over noise as the minimal threshold required to score an interaction as positive. […]. Below we highlight the screening results obtained for our exemplary fluorescent tracers based on Clozapine, Amitriptyline and AZD1283.
(§2) HiBiT-GPCR DNA constructs were diluted in 10 mM Tris pH 8 to a final concentration of 0.01 μg/μL, arrayed in 96-well plates and stored at −20 °C. For transfection, HEK293 cells were suspended in Opti-MEM (without phenol red) supplemented with 2% fetal bovine serum (Seradigm) and 100 units/mL penicillin–streptomycin (Gibco) at a final concentration of 220,000 cells/mL and dispensed into white 96-well plates at 90 μL/well. Subsequent transfections and screens were carried using an Agilent Bravo Automated Liquid Handling Platform. First, the 96-well HiBiT DNA arrays were diluted 25-fold in Opti-MEM (without serum or phenol red) to a final concentration of 0.0004 μg/μL and 20 μL of the diluted DNAs were transferred into new 96-well plates. Next, promoterless carrier DNA (1 μg/μL) was diluted 25-fold (0.04 μg/μL) and then dispensed into the diluted arrays at 20 μL/well. Following brief mixing, Viafect transfection reagent (Promega) diluted 16-fold into Opti-MEM was dispensed into the plates at 40 μL/well. After mixing by pipetting, plates were incubated for 10 min on the pipetting station deck. The DNA-transfection reagent complexes were then added to plates containing cells. To facilitate the screen, 10 μL of DNA-transfection reagent complexes were added in duplicates to the top 4 and bottom 4 rows, resulting in two identical 48-well arrays per plate. Plates with transfected cells were incubated for 18–20 h at 37 °C/5% CO2. A screen of each tracer across the entire library using two different concentrations requires duplicate plates of transfected cells. Depending on the number of tracers being screened, transfections can be scaled up using the same ratios. The next day, for each tracer, four 20× screening solutions in tracer dilution buffer (Promega) were prepared: two duplicates at final concentration of 20 μM and two duplicates at a final concentration of 2 μM. A competing unmodified compound was added to one of each duplicate at a final concentration of 400 μM. The four resulting solutions were diluted 4-fold in Opti-MEM without serum or phenol red to generate 5× solutions (5 µM and 0.5 µM tracer +/− 100 μM competing compound). To screen the library, a BioTek MultiFlo FX liquid dispenser was used to dispense 22.5 µL of tracer solution to the top 4 rows and 22.5 µL tracer + competing compound solution to the 4 bottom rows. Plates were briefly mixed on an orbital shaker and incubated for 1.5 h at room temperature. […]

C5AR1 = molecular target: T2, C5AR1 (Homo sapiens, UniProt P21730); test: NanoBRET screen HiBiT-C5AR1 in HEK293; format: binding; conditions: C5AR1
T2 construct: purchased Promega (in-house HiBiT-GPCR construct library, NanoBRET)
T2 sequence (P21730 1-350): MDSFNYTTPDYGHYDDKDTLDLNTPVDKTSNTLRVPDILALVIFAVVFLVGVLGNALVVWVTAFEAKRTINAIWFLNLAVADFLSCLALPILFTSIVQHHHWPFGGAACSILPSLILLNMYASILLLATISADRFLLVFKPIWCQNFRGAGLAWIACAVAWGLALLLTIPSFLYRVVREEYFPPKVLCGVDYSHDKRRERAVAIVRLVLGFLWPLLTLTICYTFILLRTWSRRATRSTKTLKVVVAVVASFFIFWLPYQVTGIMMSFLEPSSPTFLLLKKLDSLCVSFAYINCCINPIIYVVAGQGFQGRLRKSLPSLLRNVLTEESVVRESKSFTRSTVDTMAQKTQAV
Experimental: as §1, §2

CN1CCN(C2=Nc3cc(Cl)ccc3N(CC(=O)NCCOCCOCCOCCOCCNC(=O)CCc3ccc4n3[B-](F)(F)[N+]3=C(c5ccc[nH]5)C=CC3=C4)c3ccccc32)CC1 [Clozapine-c-2-NB590]
NanoBRET Fold Response (TACR2; 0.1μM tracer): 0.93
NanoBRET Fold Response (TACR2; 1μM tracer): 0.88
NanoBRET Fold Response (C5AR1; 0.1μM tracer): 1.00
NanoBRET Fold Response (C5AR1; 1μM tracer): 1.05

O=C(CCOCCOCCOCCOCCNC(=O)CCc1ccc2n1[B-](F)(F)[N+]1=C(c3ccc[nH]3)C=CC1=C2)NCCCN1CCN(C2=Nc3ccccc3Oc3ccc(Cl)cc32)CC1 [Loxapine-a-2-NB590]
NanoBRET Fold Response (TACR2; tracer 0.1μM): 0.86
NanoBRET Fold Response (TACR2; tracer 1μM): 0.64
NanoBRET Fold Response (C5AR1; tracer 0.1μM): 1.01
NanoBRET Fold Response (C5AR1; tracer 1μM): 0.98

COc1ccccc1N1CCN(CCCCN2C(=O)c3ccc(CNC(=O)CCOCCOCCOCCOCCNC(=O)CCc4ccc5n4[B-](F)(F)[N+]4=C(c6ccc[nH]6)C=CC4=C5)cc3C2=O)CC1 [NAN-190-2-NB590]
NanoBRET Fold Response (TACR2; tracer 0.1μM): 0.88
NanoBRET Fold Response (TACR2; tracer 1μM): 1.04
NanoBRET Fold Response (C5AR1; tracer 0.1μM): 1.03
NanoBRET Fold Response (C5AR1; tracer 1μM): 1.04

COc1ccccc1N1CCN(CCCCN2C(=O)c3ccc(CNC(=O)CCOCCNC(=O)c4ccc(CNC(=O)CCc5ccc6n5[B-](F)(F)[N+]5=C(c7ccc[nH]7)C=CC5=C6)cc4)cc3C2=O)CC1 [NAN-190-3-NB590]
NanoBRET Fold Response (TACR2; tracer 0.1μM): 1.12
NanoBRET Fold Response (TACR2; tracer 1μM): 1.09
NanoBRET Fold Response (C5AR1; tracer 0.1μM): 1.02
NanoBRET Fold Response (C5AR1; tracer 1μM): 1.10

O=C(CCc1ccc2n1[B-](F)(F)[N+]1=C(c3ccc[nH]3)C=CC1=C2)NCc1ccc(C(=O)NCCOCCC(=O)N[C@@H]2CC[C@@]3(O)[C@H]4Cc5ccc(O)c6c5[C@@]3(CCN4CC3CC3)[C@H]2O6)cc1 [Naltrexone-3-NB590]
NanoBRET Fold Response (TACR2; tracer 0.1μM): 0.82
NanoBRET Fold Response (TACR2; tracer 1μM): 0.91
NanoBRET Fold Response (C5AR1; tracer 0.1μM): 0.94
NanoBRET Fold Response (C5AR1; tracer 1μM): 0.93

Cc1cc2c(s1)Nc1ccccc1N=C2N1CCN(CCCNC(=O)CCOCCOCCOCCOCCNC(=O)CCc2ccc3n2[B-](F)(F)[N+]2=C(c4ccc[nH]4)C=CC2=C3)CC1 [Olanzapine-a-2-NB590]
NanoBRET Fold Response (TACR2; tracer 0.1μM): 1.01
NanoBRET Fold Response (TACR2; tracer 1μM): 0.88
NanoBRET Fold Response (C5AR1; tracer 0.1μM): 1.06
NanoBRET Fold Response (C5AR1; tracer 1μM): 1.09

O=C(CCc1ccc2n1[B-](F)(F)[N+]1=C(c3ccc[nH]3)C=CC1=C2)NCc1ccc(C(=O)NCCOCCOCCNCC(O)COc2cccc3ccccc23)cc1 (stereo not drawn) [Propranolol-3-NB590]
NanoBRET Fold Response (TACR2; 0.1μM): 1.01
NanoBRET Fold Response (TACR2; 1μM): 1.01
NanoBRET Fold Response (C5AR1; 0.1μM): 1.05
NanoBRET Fold Response (C5AR1; 1μM): 1.03

O=C(CCc1ccc2n1[B-](F)(F)[N+]1=C(c3ccc[nH]3)C=CC1=C2)NCCOCCOCCNC(=O)OCCOCCN1CCN(C2=Nc3ccccc3Sc3ccccc32)CC1 [Quetiapine-a-2-NB590]
NanoBRET Fold Response (TACR2; tracer 0.1μM): 1.22
NanoBRET Fold Response (TACR2; tracer 1μM): 0.72
NanoBRET Fold Response (C5AR1; tracer 0.1μM): 1.07
NanoBRET Fold Response (C5AR1; tracer 1μM): 0.84

Cc1nc2n(c(=O)c1CCN1CCC(c3noc4cc(F)ccc34)CC1)CCCC2OC(=O)NCCOCCOCCOCCOCCNC(=O)CCc1ccc2n1[B-](F)(F)[N+]1=C(c3ccc[nH]3)C=CC1=C2 (stereo not drawn) [Risperidone-2-NB590]
NanoBRET Fold Response (TACR2; tracer 0.1μM): 1.18
NanoBRET Fold Response (TACR2; tracer 1μM): 1.09
NanoBRET Fold Response (C5AR1; tracer 0.1μM): 0.95
NanoBRET Fold Response (C5AR1; tracer 1μM): 0.99
